Measurements as given in patent publication US20260240844A1, “INHIBITORS OF CHD1L AND USES THEREOF” (The Regents of the University of Colorado, a body corporate, priority 2023, published 2026).
Like-named read-outs stand apart in the source and are kept apart here.

Assays:
Colo678 cells = assay: Colo678 cell viability, combination with chemotherapy; format: cell-based; details: Colo678 cells, 72 h; combined with SN-38
HCT116 Parental cells = assay: HCT116 Parental cell viability, combination with chemotherapy; format: cell-based; details: HCT116 cells
SW620 Parental cells = assay: SW620 Parental cell viability, combination with chemotherapy; format: cell-based; details: SW620 cells
MiaPaca2 cells = assay: MiaPaca2 cell viability, combination with chemotherapy; format: cell-based; details: MiaPaca2 cells
Source text: The cell viability assays and Bliss synergy analyses are as described above in Examples 1-9 and 11-12.

AIF in SUM149PT cells = assay: AIF immunofluorescence in SUM149PT (SUM149) cells; format: cell-based; details: SUM149 cells, 4 μM
Source text: CHD1Li-mediated PAR translocation to the cytoplasm activates PARthanatos as a cell death mechanism. Parthanatos is a form a programmed cell death different from apoptosis and known to be mediated by PARP1 overactivation. The unique events occurring during parthanatos are: PARP1 rapid activation, accumulation of PAR and nuclear translocation of apoptosis inducing factor (AIF). Without being bound by any particular theory, accumulation of PAR in the cytoplasm caused by CHD1Li can also mediate parthanatos. To better understand the link between PAR translocation to the cytoplasm and cell death, immunofluorescence to measure the activation of caspase-3 and the subcellular localization of AIF after treatment with SOC drugs and Compound 6 in SUM49PT cells was used. […] Without being bound by any particular theory, this might be caused by the mitochondrial outer membrane permeabilization, which triggers release of mitochondrial proteins like AIF or cytochrome c, activating caspase-3 by its cleavage and leading to apoptosis. […] Moreover, when combining CHD1L inhibition with SOC drugs, the cell death mechanism shifts from apoptosis to parthanatos, evidenced by a significant increase in AIF nuclear translocation and decrease in activation of caspase-3 (FIG. 25D-E).
(§1) The ability of Compounds 12, 15 and 16 to localize AIF was tested in SUM149 (breast cancer) and MDA-MB-231 (TNBC) cell lines. A comparison of the relative distribution of AIF in nuclei (a) versus cytoplasm (b) in SUM149 cells and nuclei (c) versus cytoplasm (d) in MDA-MB-231 cells in the presence of 4 μM Compounds 12, 15 and 16 are shown in FIG. 28. […] Similarly, AIF concentration in the cytoplasm of MDA-MB-231 cells decreased by about 0.5 after administration with Compound 15. After treatment with Compound 16, the relative concentration of AIF in the nuclei of SUM149 cells increased by about 0.5-fold, and the concentration of AIF in the cytoplasm decreased by about 0.4-fold. In MDA-MB-231 cells, the relative concentration of AIF in the cytoplasm decreased by about 0.5-fold, while the concentration of AIF increased in the nuclei by about 0.1-fold.

AIF in MDA-MB-231 cells = assay: AIF localization in MDA-MB-231 cells; format: cell-based; details: 4 μM
Protocol: as §1

Colo679 cells = assay: DDR biomarkers (pATM, RAD51, 53BP1, γ-H2AX) in Colo679 cells; format: cell-based; details: 4 μM
Source text: (§2) Etoposide was used as a control to show upregulation of DDR pathway biomarkers.

[1] = system: SUM149 and MDA-MB-231 cells; assay: DDR biomarkers in breast cancer cells; format: cell-based; details: 4 μM
Source text: as §2

SW948 tumor organoids = assay: cells
Protocol: ATM is an important protein involved in the initial stages of the DNA damage response. […] ATM mutations are important markers being developed to identify metastatic CRC (mCRC) patients that may be sensitive to DNA damaging chemotherapy.
Synergy was assessed using the Bliss model.

[2] = system: SW620 CRC cells cultured as tumor organoids; assay: Viability of isolated EMT phenotype SW620 tumor organoids; format: cell-based; details: SW620 E, E/M, 72 h, combined with Compound 6
Protocol: FIG. 5A provides graphs showing isolated quasi EMT SW620 CRC cells E (red), E/M (yellow), and M (green) were cultured as tumor organoids and treated with SN38 combined with Compound 6 over 72 h as indicated. […].
CHD1L also regulates DNA repair via CHD1L/TCF-driven EMT by upregulating ZEB1 in CRC. ZEB1 promotes mesenchymal cell survival by upregulating the DDR. CHD1Li may sensitize isolated quasi EMT phenotypes by inhibiting EMT and DNA repair. To test this, combination studies with Compound 6 and chemotherapy measuring the viability of isolated EMT dual-reporter quasi-E, -E/M, and -M SW620 (HR-proficient) cells and HCT116 (HR-deficient) cells cultured as tumor organoids were tested. […]. […] […]. Taken together, CHD1Li synergized with chemotherapy and targeted therapy to overcome EMT-mediated drug resistance in CRC.

SW620 tumor organoids = details: 72 h; for IC50: read-out: IC50 SN38
[3] = SW620 tumor organoids, + Compound 6.11 2.75 μM

Cc1cc(Nc2ccc(NC(=O)c3cc(Br)c[nH]3)cc2)nc(N2CCCC2)n1 [Compound 12, 4-bromo-N-(4-((6-methyl-2-(pyrrolidin-1-yl)pyrimidin-4-yl)amino)phenyl)-1H-pyrrole-2-carboxamide]
calculated mean synergy score (Colo678 cells): about 26 | calculated mean synergy score (HCT116 Parental cells; 72 h, combined with SN-38): about 20 | calculated mean synergy score (HCT116 Parental cells; combined with 5-FU): about 19 | calculated mean synergy score (SW620 Parental cells; 72 h, combined with SN-38): about 53 | calculated mean synergy score (SW620 Parental cells; combined with 5-FU): about 39 | calculated mean synergy score (MiaPaca2 cells; combined with 5-FU): about 57 | calculated mean synergy score (MiaPaca2 cells; combined with SN-38): about 18 | decrease in AIF in the cytoplasm (AIF in SUM149PT cells): decrease in AIF in the cytoplasm | increase in AIF in the nucleus (AIF in SUM149PT cells): ~1 fold | increase in AIF in the nuclei (AIF in MDA-MB-231 cells): localized in both the nuclei and remained in the cytoplasm | amount of 53BP1 (Colo679 cells): decrease the amount of 53BP1 | amount of RAD51 (Colo679 cells): decrease in RAD51 | amount of pATM (Colo679 cells): increased the amount of pATM | γ-H2AX concentrations (Colo679 cells): decreased | amounts of γ-H2AX and 53BP1 [1]: overall decreases in the amounts of γ-H2AX and 53BP1

Cc1cc(Nc2ccc(NC(=O)Cc3c[nH]c4c(Cl)cccc34)cc2)nc(N2CCCC2)n1 [Compound 16, 2-(7-chloro-1H-indol-3-yl)-N-(4-((6-methyl-2-(pyrrolidin-1-yl)pyrimidin-4-yl)amino)phenyl)acetamide]
calculated mean synergy score (Colo678 cells): about 26 | decrease in AIF in the cytoplasm (AIF in SUM149PT cells): about 0.4 fold | increase in AIF in the nucleus (AIF in SUM149PT cells): about 0.5 fold | decrease in AIF in the cytoplasm (AIF in MDA-MB-231 cells): about 0.5 fold | increase in AIF in the nuclei (AIF in MDA-MB-231 cells): about 0.1 fold | amount of 53BP1 (Colo679 cells): decrease the amount of 53BP1 | amount of pATM (Colo679 cells): increased the amount of pATM | γ-H2AX concentrations (Colo679 cells): decreased | amounts of γ-H2AX and 53BP1 [1]: overall decreases in the amounts of γ-H2AX and 53BP1

CCc1c2c(nc3ccc(O)cc13)-c1cc3c(c(=O)n1C2)COC(=O)[C@]3(O)CC [SN-38]
increase in potency of the chemotherapy (SW948 tumor organoids; SW948 tumor organoids, combined with Compound 6): 1000 fold | improvement of cytotoxic potency (SW948 tumor organoids; SW948 tumor organoids, combined with Compound 6.11): 1,000 fold | IC50 (SW948 tumor organoids; read-out: IC50 SN38, SW948 tumor organoids, SN38 alone): 3160 nM | IC50 (SW948 tumor organoids; read-out: IC50 SN38, SW948 tumor organoids, combined with Compound 6.11): 3.2 nM | IC50 (SW948 tumor organoids; read-out: IC50 SN-38, SW948 tumor organoids, combined with Compound 6): ~3 nM | IC50 (SW948 tumor organoids; read-out: IC50 of chemotherapy alone, SW948 chemo resistant tumor organoids): ~3000 nM | increase of SN38 cytotoxic potency [2]: hundreds-of-fold to thousands-of-fold | increase in cytotoxic potency compared to drug alone (SW620 tumor organoids; [3]): ~ 600 fold | IC50 (SW620 tumor organoids; SW620 (ATM wt) tumor organoids, SN38 alone): ~600 nM | IC50 (SW620 tumor organoids; [3]): ~1 nM
